Measurements taken from patent publication US20120322824A1, “Cocaine Antagonist/Antidepressant Pharmaceutical Preparations” (priority 2011, published 2012).
Where two headings read alike, the source gives them in different places.

Tests used:
mice [1] = assay: open field test, time spent in center; format: in vivo; settings: FIG. 3
Excerpt: Anxiety disorders are often co-morbid with depression and antidepressant drugs are used in the treatment of anxiety. Tests for anxiety in rodents, such as the open field test, make use of the aversion of the animals for exposed locations. Treatment with anxiolytics such as diazepam or fluoxetine increases the amount of time an animal will spend in the center of the open field. We used the Opto-Varimax 4 Activity Analyzer to assess the time animals spent in the center of the open field vs. the periphery after treatment with MI-4. Data were measured as time spent in center (TIC).

[2] = biological target: serotonin (5-HT) transporter (Homo sapiens, UniProt P31645); assay: in vitro binding affinity, serotonin transporter; settings: in vitro studies
mice [3] = assay: tail suspension test (TST); format: in vivo
Excerpt: Referring now to FIGS. 5a-d, the tail suspension test (TST) and forced swim test (FST) are well-established, prototypical rodent models of learned helplessness. […] These assays are based on the premise that helpless or “depressed” animals struggle less to escape the mild but inescapable stress of being suspended or being immersed in room temperature water. […] In the TST, standard laboratory tape is used to immobilize an animal by its tail to a fixed support approximately 10.5 inches above a surface. The duration of the test is six minutes during which time animal movement is videotaped and later scored for immobility time (in sec) by a blinded observer. Similarly, in the FST animals are immersed in approximately 10 cm of 25° C. water in a 20 cm×13 cm glass cylinder. Animals were tested for 5 min and behavior was videotaped and scored for immobility time (sec) by a blinded observer.

rodents = settings: doses less than 100 mg/kg, i.p.; cited from earlier work
[4] = biological target: noreinephrine (NE) transporter (Homo sapiens, UniProt P23975); assay: in vitro binding affinity, norepinephrine transporter; settings: in vitro studies
mice [5] = assay: conditioned place preference assay (CPP); format: in vivo
Protocol: The conditioned place preference assay (CPP) is one test commonly used to show the ability of an antagonist to block rewarding effects in mice. Referring now to FIGS. 1a-b, according to the CPP test mice are placed in an apparatus with two chambers that differ in both visual and tactile cues. Over the course of a one-week training period, a rewarding drug (e.g.—cocaine) is administered once daily exclusively in one chamber so as to allow animals to associate the cues of that chamber with the drug. Sterile water is administered once daily while the animals occupy the opposite chamber to control for non-drug effects. At the conclusion of the training period, animals are allowed free access to both chambers and the time spent in each chamber is measured electronically. It is well known that addictive substances increase the amount of time animals spend in the drug-paired chamber, in the absence of any intervention.
Moreover, additional testing was performed to control for effects of MI-4 on general behavioral activity, an essential consideration when interpreting results from locomotor-based behavioral paradigms such as the CPP test.

mice [6] = assay: locomotor activity (Opto-Varimax 4 Activity Analyzer); format: in vivo
Protocol: Referring now to FIGS. 2a-d, locomotor activity was assessed in a non-invasive manner using a Opto-Varimax 4 Activity Analyzer (Columbus Instruments, Columbus, Ohio) that measures animal activity in a cage intersected with photocells projecting infrared beams 2.5 cm apart and 2 cm above the floor. After a brief habituation period, animals were treated with either sterile water as vehicle or MI-4 and activity was measured for 20 min.

[7] = biological target: dopamine (DA) transporter (Homo sapiens, UniProt Q01959); assay: in vitro binding affinity, dopamine transporter; settings: in vitro studies
[8] = human subjects, cited from earlier work
[9] = intravenous administration for up to 72 hours

dopamine (DA) transporter, sequence (Q01959 whole entry): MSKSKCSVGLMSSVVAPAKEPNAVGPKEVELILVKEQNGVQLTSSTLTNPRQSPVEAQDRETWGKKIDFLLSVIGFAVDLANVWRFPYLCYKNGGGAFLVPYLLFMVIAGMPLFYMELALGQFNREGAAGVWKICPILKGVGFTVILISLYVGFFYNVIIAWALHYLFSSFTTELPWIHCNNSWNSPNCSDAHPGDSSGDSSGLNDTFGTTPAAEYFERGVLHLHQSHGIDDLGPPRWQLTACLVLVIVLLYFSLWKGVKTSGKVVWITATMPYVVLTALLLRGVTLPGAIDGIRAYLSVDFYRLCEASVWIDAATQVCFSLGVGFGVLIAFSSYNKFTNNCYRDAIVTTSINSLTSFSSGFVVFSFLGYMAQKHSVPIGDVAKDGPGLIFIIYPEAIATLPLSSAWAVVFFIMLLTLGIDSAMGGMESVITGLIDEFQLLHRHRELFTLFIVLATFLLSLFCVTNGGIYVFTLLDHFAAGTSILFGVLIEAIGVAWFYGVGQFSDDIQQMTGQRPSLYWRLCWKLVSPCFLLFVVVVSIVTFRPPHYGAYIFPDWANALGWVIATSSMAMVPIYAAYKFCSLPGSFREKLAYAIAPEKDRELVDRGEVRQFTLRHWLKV
serotonin (5-HT) transporter, sequence (P31645 whole entry): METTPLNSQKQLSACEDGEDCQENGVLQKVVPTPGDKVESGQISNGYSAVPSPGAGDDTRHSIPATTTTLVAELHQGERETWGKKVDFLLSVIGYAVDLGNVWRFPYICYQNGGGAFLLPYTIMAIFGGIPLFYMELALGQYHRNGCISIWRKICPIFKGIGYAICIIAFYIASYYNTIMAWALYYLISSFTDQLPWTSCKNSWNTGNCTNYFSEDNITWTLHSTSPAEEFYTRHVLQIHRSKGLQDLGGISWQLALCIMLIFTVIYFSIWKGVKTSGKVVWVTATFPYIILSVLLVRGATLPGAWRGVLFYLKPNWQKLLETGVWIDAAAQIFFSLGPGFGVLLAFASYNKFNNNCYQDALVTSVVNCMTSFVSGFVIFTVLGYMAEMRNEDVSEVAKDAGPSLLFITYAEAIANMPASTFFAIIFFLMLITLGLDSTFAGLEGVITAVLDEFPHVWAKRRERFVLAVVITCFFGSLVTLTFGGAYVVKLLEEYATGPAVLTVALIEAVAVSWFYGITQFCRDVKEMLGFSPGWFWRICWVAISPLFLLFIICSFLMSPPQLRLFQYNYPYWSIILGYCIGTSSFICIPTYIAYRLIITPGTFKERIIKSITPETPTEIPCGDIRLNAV
noreinephrine (NE) transporter, sequence (P23975 whole entry): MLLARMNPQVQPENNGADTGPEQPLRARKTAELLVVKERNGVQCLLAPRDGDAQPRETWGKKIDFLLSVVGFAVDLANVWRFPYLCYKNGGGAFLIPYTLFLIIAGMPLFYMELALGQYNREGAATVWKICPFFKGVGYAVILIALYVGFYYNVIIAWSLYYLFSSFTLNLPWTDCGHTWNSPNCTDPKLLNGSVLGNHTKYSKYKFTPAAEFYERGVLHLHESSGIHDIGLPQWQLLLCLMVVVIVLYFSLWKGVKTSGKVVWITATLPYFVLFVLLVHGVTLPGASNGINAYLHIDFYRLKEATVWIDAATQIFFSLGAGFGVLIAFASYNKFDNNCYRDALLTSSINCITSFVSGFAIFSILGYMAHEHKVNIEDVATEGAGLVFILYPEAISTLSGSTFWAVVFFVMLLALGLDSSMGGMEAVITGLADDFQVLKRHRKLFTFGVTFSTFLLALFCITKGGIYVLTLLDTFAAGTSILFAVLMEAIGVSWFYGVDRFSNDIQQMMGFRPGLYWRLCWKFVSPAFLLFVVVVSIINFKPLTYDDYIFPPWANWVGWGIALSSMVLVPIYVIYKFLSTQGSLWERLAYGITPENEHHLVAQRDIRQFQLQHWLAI

In the case of `C[C@@H](CN1CCC(Cc2ccccc2)CC1)[C@@H](O)c1ccc(O)cc1` (relative stereo) [MI-4, ([R-(R*,S*)]-α-(4-Hydroxyphenyl)-β-methyl-4-(phenylmethyl)-1-piperidinepropanol], the “time in center in the open field” value (mice [1]; 10 mg/kg) was “decreased time in center”, the “time spent in center (TIC) in the open field” value (mice [1]) was “did not significantly increase” and the “binding affinity for the serotonin (5-HT) transporter” value [2] was “physiologically-relevant binding affinity”. The “immobility time in the TST” value (mice [3]; six minute test, FIG. 5a, comparable in effect to fluovoxamine and desipramine) was “dose-dependent reduction in immobility time”, the “adverse effects (tolerability)” value (rodents) was “no observable adverse effects” and the “binding affinity for the noreinephrine (NE) transporter” value [4] was “physiologically-relevant binding affinity”. For the same molecule, the “effect of cocaine on time in drug-paired chamber when co-administered” value (mice [5]; MI-4 10/mg/kg i.p. co-administered with cocaine 10 mg/kg i.p., FIG. 1b) was “reduced by half”, the “rewarding effects when administered alone (time spent in the MI-4-paired chamber)” value (mice [5]; administered alone at the same dose (10/mg/kg, i.p.)) was “did not exhibit rewarding effects” and the distance traveled (mice [6]; MI-4 vs sterile water vehicle, 20 min, FIG. 2a) was “only minor effects”. The ambulatory time (mice [6]; MI-4 vs sterile water vehicle, 20 min, FIG. 2b) was “only minor effects”, the “stereotopy time (grooming behavior)” value (mice [6]; MI-4 vs sterile water vehicle, 20 min, FIG. 2c) was “did not significantly alter” and the resting time (mice [6]; MI-4 vs sterile water vehicle, 20 min, FIG. 2d) was “only minor effects”. The “binding affinity for the dopamine (DA) transporter” value [7] was “physiologically-relevant binding affinity”.
In the case of `Oc1ccc(C2=CCN(C[C@H](O)COCc3ccccc3Cl)CC2)cc1` [MI-17, reference compound], the “immobility times in the TST” value (mice [3]; 2% DMSO vehicle, FIG. 5c) was “dose-dependently increased”, the “immobility times in the TST” value (mice [3]; 55% DMSO vehicle in the oxalate form, FIG. 5d) was “dose-dependently increased” and the distance traveled (mice [6]; beginning at 3 mg/kg but mostly at 10 mg/kg, FIG. 4a) was “dramatically decreased”. For the same molecule, the resting time (mice [6]; beginning at 3 mg/kg but mostly at 10 mg/kg, FIG. 4b) was “dramatically increasing”, the stereotopy time (mice [6]; beginning at 3 mg/kg but mostly at 10 mg/kg, FIG. 4c) was “dramatically decreased” and the ambulatory time (mice [6]; beginning at 3 mg/kg but mostly at 10 mg/kg, FIG. 4d) was “dramatically decreased”.
In the case of `C[C@@H]([C@@H](O)c1ccc(O)cc1)N1CCC(O)(c2ccccc2)CC1` [traxoprodil], the oral bioavailability ([8]; extensive metabolizers (EM)) is listed as 23-62%, the adverse effects [8, 9] is listed as “no observable adverse effects” and the “sustained levels in the cerebral spinal fluid” value [8, 9] is listed as > 200 ng/mL. For the same molecule, the “sustained levels in the plasma” value [8, 9] was > 200 ng/mL and the oral bioavailability ([8]; poor metabolizers (PM)) was “approx. 80%”.
